Assay results taken from patent publication US11286234B2, “Phenyl urea derivatives as N-formyl peptide receptor modulators” (Allergan, Inc., priority 2016, dated 2022).

Tests used:
FPR2 = target: T1, FPR2 (Homo sapiens, UniProt P25090); assay: Compound-induced calcium activity (FLIPR Tetra) in CHO-Gα16 cells stably expressing FPR2; format: cell-based; conditions: for EC50: calcium activity, tested 0.61 to 10,000 nM, read-out: FPR2 Ga16-CHO EC50; for Emax: efficacy value in brackets, read-out: FPR2 Ga16-CHO (% eff)
T1 construct: expressed in transfected cells
T1 sequence (P25090 1-351): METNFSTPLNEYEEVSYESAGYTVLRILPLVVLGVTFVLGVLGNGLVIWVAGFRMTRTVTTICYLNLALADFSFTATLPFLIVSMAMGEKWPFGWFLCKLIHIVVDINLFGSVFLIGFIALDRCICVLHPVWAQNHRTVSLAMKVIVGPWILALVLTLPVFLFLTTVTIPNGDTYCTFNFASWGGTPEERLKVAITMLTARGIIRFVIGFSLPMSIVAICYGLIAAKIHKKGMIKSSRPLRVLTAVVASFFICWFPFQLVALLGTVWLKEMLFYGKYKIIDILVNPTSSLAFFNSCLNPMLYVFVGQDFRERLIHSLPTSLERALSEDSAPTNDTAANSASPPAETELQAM
Procedure: (§1) CHO-Gα16 cells stably expressing FPR1 or FPR2 were cultured in: Ham's F12 nutrient media, 10% fetal bovine serum, 1% PSA (penicillin, streptomycin, amphotericin B antiobiotic/antimycotic), 400 μg/ml geneticin and 50 μg/ml hygromycin. In general, the day before the experiment, 18,000 cells/well were plated in a 384-well clear bottom poly-D-lysine coated plate. The following day the screening compound-induced calcium activity was assayed on the FLIPR^Tetra. The drug plates were prepared in 384-well microplates using the EP3 and the MultiPROBE robotic liquid handling systems. Compounds were tested at concentrations ranging from 0.61 to 10,000 nM. Results are expressed as EC50 (nM) and efficacy values.

FPR1 = target: T2, FPR1 (Homo sapiens, UniProt P21462); assay: Compound-induced calcium activity (FLIPR Tetra) in CHO-Gα16 cells stably expressing FPR1; format: cell-based; conditions: for EC50 / Emax: CHO-Gα16 cells stably expressing FPR1; for EC50: calcium activity, tested 0.61 to 10,000 nM, read-out: FPR1 Ga16-CHO EC50; for Emax: efficacy value in brackets, read-out: FPR1 Ga16-CHO (% eff); for Ratio FPR2:FPR1 (EC50): ratio of the EC50 for agonizing FPR2 to the EC50 for agonizing FPR1
T2 construct: expressed in transfected cells
T2 sequence (P21462 1-350): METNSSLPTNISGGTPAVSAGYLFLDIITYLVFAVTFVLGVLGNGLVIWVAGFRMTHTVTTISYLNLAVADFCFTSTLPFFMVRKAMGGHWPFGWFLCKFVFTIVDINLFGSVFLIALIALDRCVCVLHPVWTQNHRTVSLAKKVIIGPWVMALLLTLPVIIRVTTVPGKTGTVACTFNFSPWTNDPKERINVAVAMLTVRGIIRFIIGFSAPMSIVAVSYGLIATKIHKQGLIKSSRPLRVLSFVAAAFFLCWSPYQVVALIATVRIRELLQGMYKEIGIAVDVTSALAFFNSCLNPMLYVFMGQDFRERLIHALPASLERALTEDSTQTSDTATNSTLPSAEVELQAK
Procedure: as §1

| EC50 (FPR2) | Emax (FPR2) | EC50 (FPR1) | Emax (FPR1) | Ratio FPR2:FPR1 (EC50) (FPR1) | Structure (SMILES) |
| --- | --- | --- | --- | --- | --- |
| 1000 nM | 43% | 156 nM | 95% | 6.4 | CC(C)CC(CNC(=O)Nc1ccc(Br)cc1)C(=O)NCC(=O)O (centres unmarked) [Compound 36, ({2-[({[(4-bromophenyl)amino]carbonyl}amino)methyl]-4-methylpentanoyl}amino)acetic acid] |
| 12 nM | 104% | 55 nM | 96% | 0.22 | CC(C)CC(CNC(=O)Nc1ccc(Br)cc1)C(=O)N(C)CC(=O)O (centres unmarked) [Compound 37, 2-(2-((3-(4-bromophenyl)ureido)methyl)-N,4-dimethylpentanamido)acetic acid] |
| 2170 nM | 80% | 2600 nM | 77% | 0.83 | COC(=O)C(CNC(=O)CNC(=O)Nc1ccc(Br)cc1)CC(C)C (centres unmarked) [Compound 38] |
| 1680 nM | 77% | 19 nM | 96% | 88 | CC(C)CC(CNC(=O)CNC(=O)Nc1ccc(Br)cc1)C(=O)O (centres unmarked) [Compound 39, 2-((2-(3-(4-Bromophenyl)ureido)acetamido)methyl)-4-methylpentanoic acid] |
